The results in this text go back to PubChem BioAssay (NCI).

Holding throughout (assay): NCI anticancer screen, dose series, 48 h
Assay [1] concerns XF 498 CNS.
Assay [2] relates to M19-MEL melanoma.
The subject of assay [3] is LXFL 529 NSCLC.
Assay [4] deals with RXF-631 renal.
The subject of assay [5] is DMS 273 small cell lung.
The test system of assay [6] is DMS 114 small cell lung.
Assay [7] relates to HOP-18 NSCLC.
The subject of assay [8] is BT-549 breast.
In assay [9] the test system is MDA-N.

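These data come from cells grown in 96-well plates and exposed to compound for 48 hours at five concentrations. GI50 marks 50% less growth. The concentration for full growth arrest is given as TGI.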

Turning to `Cc1cc(N(CCC#N)CCC#N)ccc1/C=C/C(=O)Nc1cccc(Cl)c1`, the TGI in assay [1], in assay [2], in [3], in assay [4], in assay [5] and in assay [6] was > 100 µM in each case.

Take `Cc1c(C#N)c(=O)[nH]c(=O)n1CCN1CCN(C(=O)NCCCCCCNC(=O)N2CCN(CCn3c(C)c(C#N)c(=O)[nH]c3=O)CC2)CC1`: the TGI in [7], in assay [1], in [2], in [3], in assay [5] and in assay [6] was > 100 µM each time.

`C=C1COC(/C=C(\C)CC/C=C(\C)CCl)C1` (configuration not stated): the TGI in [1], in assay [2], in [3], in [5] and in [6] was > 100 µM throughout.

Regarding `CC(=O)OC1CCn2nnc(CO[Si](C)(C)C(C)(C)C)c21` (configuration not stated), the TGI in assay [7], in assay [1], in assay [3], in [5] and in assay [6] was > 100 µM in each case.

Take `CCOC(=O)C(C)(c1cn(C)c2ccccc12)c1cn(C)c2ccccc12`: the TGI in assay [1], in assay [2], in [3], in [4], in [5] and in assay [6] was > 100 µM in each case.

As to `C=CCc1cc(OC)c2c(c1)C(O)CC(c1ccccc1)O2` (configuration not stated), the TGI in [7], in [2], in [3], in [4], in assay [5] and in assay [6] was > 100 µM in each case.

For `CCOC(=O)C1Oc2ccc([N+](=O)[O-])c3c2C1(O)CCC3` (configuration not stated), the TGI in [2], in assay [3], in assay [4], in assay [5] and in [6] was > 100 µM each time.

For the molecule `C[C@]12CCC3[C@@H](CC[C@@H]4c5nonc5CC[C@]34C)C1CCC(=O)N2` (some centres not stated), the TGI in assay [7], in assay [1], in assay [2], in assay [3], in [4] and in assay [5] was > 100 µM in each case.

With `C=CCOC1OC(CO[Si](C)(C)C(C)(C)C)C(OCc2ccccc2)C(OCc2ccccc2)C1OCc1ccccc1` (configuration not stated), the TGI in assay [8] and in assay [9] was > 100 µM in each case.

`Cc1cc2c(C)n(Cc3ccc(Cl)cc3Cl)nc2c(C#N)c1C`: the TGI in [7] is > 91.6 µM; in assay [1] it was 23 µM; in assay [2], > 100 µM; in assay [3] it was > 100 µM; in assay [5], > 100 µM; in assay [6] it was > 100 µM.

For the molecule `C[Si](C)(C)OC1(C#N)C2C3CC4C2C(=O)C2C4C3C21` (configuration not stated), the TGI in assay [7], in assay [2], in [3], in [5] and in assay [6] was > 100 µM in each case.

As for `CCOc1ccc2nc(NC(=O)c3c/c(=N\NC(=O)C[N+](C)(C)C)c4ccc(O)cc4o3)sc2c1`, the TGI was 5.05 µM in assay [7]; 6.14 µM in [1]; 0.501 µM in [2]; 4.45 µM in assay [3]; 26.8 µM in assay [4]; 28.7 µM in assay [5]. For the same molecule, in [6], the TGI amounted to 4.51 µM.

For `O=S(=O)(c1ccccc1)C(CN1CCCCC1)S(=O)(=O)c1ccccc1`, the TGI in assay [1], in assay [2], in assay [3] and in assay [5] was > 100 µM in each case.

Take `CCOC(=O)c1oc2ccc(OC)c3c2c1CCC3`: the TGI in assay [1], in assay [2], in assay [3], in assay [5] and in [6] was > 100 µM throughout.

On to `COc1cc(C(=O)C/C(CCC(=O)Nc2ccccc2[N+](=O)[O-])=N\NC(=O)CC#N)ccc1O`, for which the TGI in assay [7], in [1], in assay [2], in assay [3], in assay [4] and in assay [5] was > 100 µM each time.

With `Brc1cccc(C2SCc3nc4ccccc4n32)c1` (configuration not stated), the results for the TGI in assay [2], in assay [3] and in assay [6] were 49.1 µM, > 100 µM and 35.2 µM, respectively.

`Cn1cnc2nc(Cl)nc(NC(C)(C)C(C)(C)O)c21`: the TGI in assay [7], in assay [1], in assay [5] and in assay [6] was > 100 µM in each case.

Turning to `O=C1C=C(Br)c2c(-c3ccccc3)oc3cccc1c23`, the TGI is > 100 µM in [8]; 66 µM in assay [9]; > 100 µM in assay [7]; > 100 µM in [2]; > 100 µM in assay [3]; > 100 µM in [4]. In addition, the TGI in assay [5] and in [6] was > 100 µM throughout.

`CCCCCCc1cc(C(=O)Nc2cccc(C(F)(F)F)c2)nc(N)n1`: the TGI in [7], in [2], in [3], in [4], in assay [5] and in assay [6] was > 100 µM in each case.

For the molecule `COc1cccc(C=Nc2cc(C)ccn2)c1O.COc1cccc(C=Nc2cc(C)ccn2)c1O.[Cu]`, the GI50 in [8] is 16.5 µM; in assay [9] it was 16.3 µM. The results for the TGI in assay [8] and in assay [9] were 42.4 µM and 41.3 µM, respectively.

Turning to `CC(=O)NC1=C(OS(=O)(=O)c2ccc(C)cc2)CN(C)C1=O`, the figures for the TGI in [8] and in assay [9] were 12 µM and 24.5 µM, respectively.
